The source of these data is ChEMBL document CHEMBL5291721, “A preclinical secondary pharmacology resource illuminates target-adverse drug reaction associations of marketed drugs” (Nat Commun, 2023).

Molecules are shown by their SMILES.

One assay has as its target T1, Adenosine receptor A3 (Homo sapiens, UniProt P0DMS8).
T1 sequence (P0DMS8 whole entry): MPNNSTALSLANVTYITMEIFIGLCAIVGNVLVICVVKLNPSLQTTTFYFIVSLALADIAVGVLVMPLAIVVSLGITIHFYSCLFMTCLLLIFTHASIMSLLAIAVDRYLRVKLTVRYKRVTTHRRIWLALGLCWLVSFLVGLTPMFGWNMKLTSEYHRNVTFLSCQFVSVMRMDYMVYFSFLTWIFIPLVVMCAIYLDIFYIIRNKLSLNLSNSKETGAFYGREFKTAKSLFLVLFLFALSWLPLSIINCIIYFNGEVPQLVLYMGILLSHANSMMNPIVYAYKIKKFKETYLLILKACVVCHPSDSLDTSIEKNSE

The next assay deals with Vasopressin V1a receptor (Homo sapiens, UniProt P37288).
Vasopressin V1a receptor, sequence (P37288 whole entry): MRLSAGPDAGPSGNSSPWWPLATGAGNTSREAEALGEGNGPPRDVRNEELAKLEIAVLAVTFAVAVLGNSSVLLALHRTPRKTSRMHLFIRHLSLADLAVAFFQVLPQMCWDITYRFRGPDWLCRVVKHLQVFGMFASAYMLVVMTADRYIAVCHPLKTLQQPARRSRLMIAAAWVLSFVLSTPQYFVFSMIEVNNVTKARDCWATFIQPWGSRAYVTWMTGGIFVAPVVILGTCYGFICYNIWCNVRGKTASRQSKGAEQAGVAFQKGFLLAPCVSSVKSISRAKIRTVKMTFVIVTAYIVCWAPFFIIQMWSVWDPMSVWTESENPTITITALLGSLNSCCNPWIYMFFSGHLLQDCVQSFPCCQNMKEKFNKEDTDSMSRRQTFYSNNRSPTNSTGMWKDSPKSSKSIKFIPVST
Another assay has as its target Vasopressin V2 receptor (Homo sapiens, UniProt P30518).
Another assay addresses T2, B2 bradykinin receptor (Homo sapiens, UniProt P30411).
T2 sequence (P30411 whole entry): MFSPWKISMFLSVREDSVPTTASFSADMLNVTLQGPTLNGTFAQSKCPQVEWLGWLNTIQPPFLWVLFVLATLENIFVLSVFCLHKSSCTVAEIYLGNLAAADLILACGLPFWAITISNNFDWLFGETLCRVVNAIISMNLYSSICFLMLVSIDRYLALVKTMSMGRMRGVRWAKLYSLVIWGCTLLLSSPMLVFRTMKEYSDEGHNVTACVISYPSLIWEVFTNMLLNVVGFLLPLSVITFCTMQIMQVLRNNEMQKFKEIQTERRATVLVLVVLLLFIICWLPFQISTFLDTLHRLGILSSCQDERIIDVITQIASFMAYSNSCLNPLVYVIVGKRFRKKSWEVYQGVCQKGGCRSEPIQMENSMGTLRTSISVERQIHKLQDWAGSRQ

Assay [1] deals with T3, Muscarinic acetylcholine receptor M2 (Homo sapiens, UniProt P08172).
T3 sequence (P08172 whole entry): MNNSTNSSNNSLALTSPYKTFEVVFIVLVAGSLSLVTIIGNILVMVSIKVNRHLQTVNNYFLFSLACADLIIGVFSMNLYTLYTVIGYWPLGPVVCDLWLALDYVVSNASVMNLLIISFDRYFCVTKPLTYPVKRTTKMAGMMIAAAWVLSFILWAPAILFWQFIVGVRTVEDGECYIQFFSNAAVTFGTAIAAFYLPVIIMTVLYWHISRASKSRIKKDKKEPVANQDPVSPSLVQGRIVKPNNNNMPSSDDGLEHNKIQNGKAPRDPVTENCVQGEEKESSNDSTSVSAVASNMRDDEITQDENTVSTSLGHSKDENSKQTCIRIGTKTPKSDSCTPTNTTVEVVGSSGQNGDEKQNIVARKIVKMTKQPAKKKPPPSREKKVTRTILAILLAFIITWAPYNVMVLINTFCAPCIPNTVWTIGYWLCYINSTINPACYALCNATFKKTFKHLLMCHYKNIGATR
In kind it is functional, cell-based.

The target of assay [2] is Delta-type opioid receptor (Homo sapiens, UniProt P41143).
Delta-type opioid receptor, sequence (P41143 whole entry): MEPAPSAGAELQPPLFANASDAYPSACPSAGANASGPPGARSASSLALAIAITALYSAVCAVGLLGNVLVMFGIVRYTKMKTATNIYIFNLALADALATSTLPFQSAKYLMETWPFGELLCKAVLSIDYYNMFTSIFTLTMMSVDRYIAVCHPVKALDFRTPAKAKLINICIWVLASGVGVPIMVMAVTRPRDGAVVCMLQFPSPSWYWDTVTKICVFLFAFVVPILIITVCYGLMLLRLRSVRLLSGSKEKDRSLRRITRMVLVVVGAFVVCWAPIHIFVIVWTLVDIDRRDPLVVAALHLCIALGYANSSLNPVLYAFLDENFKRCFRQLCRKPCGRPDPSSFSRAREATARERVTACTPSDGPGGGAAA
Assay [3] addresses T4, Prostaglandin G/H synthase 1 (Rattus norvegicus, UniProt Q63921).
T4 sequence (Q63921 whole entry): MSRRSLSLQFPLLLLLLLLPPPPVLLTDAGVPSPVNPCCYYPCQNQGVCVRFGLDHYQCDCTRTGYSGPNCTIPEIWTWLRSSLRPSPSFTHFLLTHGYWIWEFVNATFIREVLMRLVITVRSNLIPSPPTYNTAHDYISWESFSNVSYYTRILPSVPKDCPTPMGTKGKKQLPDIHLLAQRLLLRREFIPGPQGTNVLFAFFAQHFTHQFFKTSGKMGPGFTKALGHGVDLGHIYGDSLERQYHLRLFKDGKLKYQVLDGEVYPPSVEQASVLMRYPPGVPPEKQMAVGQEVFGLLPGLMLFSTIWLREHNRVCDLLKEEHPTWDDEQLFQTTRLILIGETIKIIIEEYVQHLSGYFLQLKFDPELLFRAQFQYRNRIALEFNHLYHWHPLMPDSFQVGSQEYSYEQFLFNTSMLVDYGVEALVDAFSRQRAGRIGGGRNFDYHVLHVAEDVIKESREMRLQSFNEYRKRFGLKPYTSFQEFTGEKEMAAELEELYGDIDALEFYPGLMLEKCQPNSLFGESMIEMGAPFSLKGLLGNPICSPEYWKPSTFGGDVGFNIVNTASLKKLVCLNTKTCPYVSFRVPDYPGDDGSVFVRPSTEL
In kind it is functional.

The target of assay [4] is Neuronal acetylcholine receptor subunit alpha-4 (Homo sapiens, UniProt P43681).
Neuronal acetylcholine receptor subunit alpha-4, sequence (P43681 whole entry): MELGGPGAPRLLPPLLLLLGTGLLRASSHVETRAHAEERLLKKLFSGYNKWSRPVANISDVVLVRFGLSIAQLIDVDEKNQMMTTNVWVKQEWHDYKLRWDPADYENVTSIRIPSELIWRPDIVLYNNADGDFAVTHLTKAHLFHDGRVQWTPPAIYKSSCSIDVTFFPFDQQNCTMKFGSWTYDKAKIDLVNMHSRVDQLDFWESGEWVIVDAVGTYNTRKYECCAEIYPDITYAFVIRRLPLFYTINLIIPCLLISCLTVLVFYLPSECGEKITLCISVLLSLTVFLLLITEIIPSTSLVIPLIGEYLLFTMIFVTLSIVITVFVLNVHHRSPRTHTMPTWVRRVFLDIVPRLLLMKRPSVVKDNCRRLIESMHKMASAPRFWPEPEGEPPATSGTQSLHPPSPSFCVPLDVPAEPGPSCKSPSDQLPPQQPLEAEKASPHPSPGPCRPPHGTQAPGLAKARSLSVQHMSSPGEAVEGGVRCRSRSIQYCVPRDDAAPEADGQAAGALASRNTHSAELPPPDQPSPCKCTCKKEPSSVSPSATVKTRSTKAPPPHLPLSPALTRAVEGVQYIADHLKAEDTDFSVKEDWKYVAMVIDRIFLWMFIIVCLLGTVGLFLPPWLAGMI
Another assay addresses T5, Progesterone receptor (Homo sapiens, UniProt P06401).
T5 sequence (P06401 whole entry): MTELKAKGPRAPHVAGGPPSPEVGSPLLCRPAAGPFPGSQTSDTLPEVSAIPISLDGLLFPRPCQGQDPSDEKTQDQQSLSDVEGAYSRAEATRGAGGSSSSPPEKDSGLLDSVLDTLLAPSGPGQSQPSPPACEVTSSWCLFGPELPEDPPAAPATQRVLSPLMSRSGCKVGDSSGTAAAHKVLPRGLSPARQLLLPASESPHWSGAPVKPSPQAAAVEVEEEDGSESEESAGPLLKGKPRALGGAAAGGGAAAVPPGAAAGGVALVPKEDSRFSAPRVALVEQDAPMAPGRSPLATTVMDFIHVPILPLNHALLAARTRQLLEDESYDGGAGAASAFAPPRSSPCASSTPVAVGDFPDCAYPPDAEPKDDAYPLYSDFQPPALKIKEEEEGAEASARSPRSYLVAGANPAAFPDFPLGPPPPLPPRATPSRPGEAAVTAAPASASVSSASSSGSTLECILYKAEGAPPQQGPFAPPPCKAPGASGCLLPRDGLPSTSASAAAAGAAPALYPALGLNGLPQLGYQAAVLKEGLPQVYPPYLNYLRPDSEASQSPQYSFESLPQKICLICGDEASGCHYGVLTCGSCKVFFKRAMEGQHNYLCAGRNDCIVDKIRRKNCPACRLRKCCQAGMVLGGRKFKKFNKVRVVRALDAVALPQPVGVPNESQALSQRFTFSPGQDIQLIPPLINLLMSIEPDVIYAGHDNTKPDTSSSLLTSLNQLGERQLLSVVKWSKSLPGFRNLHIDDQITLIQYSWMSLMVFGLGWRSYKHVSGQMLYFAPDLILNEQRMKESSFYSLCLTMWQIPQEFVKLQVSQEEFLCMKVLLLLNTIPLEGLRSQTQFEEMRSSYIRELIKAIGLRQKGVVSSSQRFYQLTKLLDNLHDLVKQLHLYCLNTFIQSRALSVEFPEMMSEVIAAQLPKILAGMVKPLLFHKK
In kind it is functional.
Further: assay procedure not described here.

Vasopressin V2 receptor, sequence (P30518 whole entry): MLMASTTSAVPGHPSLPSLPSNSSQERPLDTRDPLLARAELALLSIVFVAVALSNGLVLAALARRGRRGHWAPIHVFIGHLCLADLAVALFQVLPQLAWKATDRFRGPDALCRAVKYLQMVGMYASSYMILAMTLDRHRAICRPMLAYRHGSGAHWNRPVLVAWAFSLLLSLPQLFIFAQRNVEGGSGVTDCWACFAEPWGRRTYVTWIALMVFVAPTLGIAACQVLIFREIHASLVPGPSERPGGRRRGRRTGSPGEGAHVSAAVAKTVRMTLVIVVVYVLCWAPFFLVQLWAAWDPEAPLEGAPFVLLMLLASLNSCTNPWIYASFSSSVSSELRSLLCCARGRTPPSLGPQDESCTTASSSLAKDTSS

By AC50 is commonly meant the midpoint of the concentration-response curve, whichever way the signal moves. Low values mean greater potency, high ones weaker potency. Consider `CNS(=O)(=O)Cc1ccc2[nH]cc(CCN(C)C)c2c1`, for which the AC50 was over 30 µM at Adenosine receptor A3; over 10 µM at Vasopressin V1a receptor; over 30 µM on Vasopressin V2 receptor; over 30 µM on B2 bradykinin receptor; over 30 µM in [1]; over 30 µM in assay [2]. This compound came in with an AC50 in assay [3] of over 30 µM.

Take `Nc1nc(N)nc(-c2cc(Cl)ccc2Cl)n1` [IRSOGLADINE]: the AC50 (at Adenosine receptor A3; on Vasopressin V2 receptor; at B2 bradykinin receptor; in assay [1]; in assay [4]; on Progesterone receptor) was over 30 µM each time. This compound also came in with an AC50 in assay [3] of over 30 µM.

Regarding `CC(=O)O[C@H]1C[C@@H]2CC[C@@H]3[C@H](CC[C@@]4(C)[C@H]3C[C@H]([N+]3(C)CCCCC3)[C@@H]4OC(C)=O)[C@@]2(C)C[C@@H]1N1CCCCC1` [VECURONIUM], the AC50 (on Adenosine receptor A3; on Vasopressin V2 receptor; on B2 bradykinin receptor; in assay [1]; in [4]; in [2]) was over 30 µM in each case. Besides, the results for the half-maximal activity concentration (AC50) (on Progesterone receptor; in [3]) were over 30 µM and 14 µM, respectively.

On to `COc1ccc2c3c1O[C@H]1[C@@H](O)C=C[C@H]4[C@@H](C2)N(C)CC[C@@]341` [CODEINE], for which the AC50 on Adenosine receptor A3 was over 30 µM; on Vasopressin V1a receptor, over 30 µM; on Vasopressin V2 receptor, over 30 µM; on B2 bradykinin receptor it was over 30 µM; in assay [1], over 10 µM; in [4], over 10 µM. This compound also gave an AC50 in [3] of over 30 µM.

As to `CCCc1nc(C(C)(C)O)c(C(=O)OCc2oc(=O)oc2C)n1Cc1ccc(-c2ccccc2-c2nnn[nH]2)cc1` [OLMESARTAN MEDOXOMIL], the AC50 at Adenosine receptor A3 was over 10 µM; on Vasopressin V1a receptor it was over 30 µM; at Vasopressin V2 receptor it was over 30 µM; at B2 bradykinin receptor, over 30 µM; in [1], over 10 µM; in [4], over 10 µM. Also, the half-maximal activity concentration (AC50) in assay [2] is over 10 µM; in assay [3], over 30 µM.

For the compound `CN1CCN(CC/C=C2/c3ccccc3Sc3ccc(S(=O)(=O)N(C)C)cc32)CC1` [THIOTHIXENE], the concentration at half-maximal activity (AC50) at Adenosine receptor A3 is over 30 µM; at Vasopressin V1a receptor, over 10 µM; on Vasopressin V2 receptor, 20 µM; at B2 bradykinin receptor, over 30 µM; in assay [1], over 10 µM; in [2] it was over 10 µM. This compound had a half-maximal activity concentration (AC50) in [3] of over 30 µM.

Turning to `CN1CCC(=C2c3ccccc3CCc3sccc32)CC1` [PIZOTYLINE], the AC50 is over 30 µM on Adenosine receptor A3; over 30 µM on Vasopressin V1a receptor; over 30 µM at Vasopressin V2 receptor; over 30 µM on B2 bradykinin receptor; over 30 µM in assay [1]; over 10 µM in assay [4]. Further, the AC50 in [2] and in assay [3] was over 30 µM each time.

On to `C#C[C@]1(O)CC[C@H]2[C@@H]3CCC4=Cc5oncc5C[C@]4(C)[C@H]3CC[C@@]21C` [DANAZOL], for which the concentration at half-maximal activity (AC50) at Adenosine receptor A3 is over 30 µM; at Vasopressin V2 receptor, over 10 µM; at B2 bradykinin receptor it was over 10 µM; in assay [4], over 10 µM; in assay [2], over 30 µM; at Progesterone receptor, 0.019 µM.

For `CC(C)(C)c1cc(C(C)(C)C)c(NC(=O)c2c[nH]c3ccccc3c2=O)cc1O` [IVACAFTOR], the concentration at half-maximal activity (AC50) was 2.3 µM on Adenosine receptor A3; over 30 µM on Vasopressin V1a receptor; over 30 µM on Vasopressin V2 receptor; over 30 µM on B2 bradykinin receptor; over 10 µM in [4]; over 30 µM in assay [2]. The compound further showed a concentration at half-maximal activity (AC50) in assay [3] of over 30 µM.

Turning to `CCN1CCN(C(=O)N[C@@H](C(=O)N[C@@H]2C(=O)N3C(C(=O)O)=C(CSc4nnnn4C)CS[C@H]23)c2ccc(O)cc2)C(=O)C1=O` [CEFOPERAZONE], the half-maximal activity concentration (AC50) (on Adenosine receptor A3; on Vasopressin V1a receptor; at Vasopressin V2 receptor; on B2 bradykinin receptor; in [1]; in [4]) was over 30 µM in each case. For the same compound, the concentration at half-maximal activity (AC50) in assay [2] and in assay [3] was over 30 µM in each case.

In the case of `CC[C@@H]1C(=O)OC[C@@H]1Cc1cncn1C` [PILOCARPINE], the concentration at half-maximal activity (AC50) at Adenosine receptor A3 is over 30 µM; on Vasopressin V1a receptor it was over 30 µM; on Vasopressin V2 receptor, over 30 µM; on B2 bradykinin receptor, over 30 µM; in assay [4], over 10 µM; in assay [2], over 30 µM. In addition, the half-maximal activity concentration (AC50) in assay [3] was over 30 µM.

Turning to `N#Cc1ccc([C@H]2CCc3cncn32)c(F)c1` [OSILODROSTAT], the concentration at half-maximal activity (AC50) (at Adenosine receptor A3; at Vasopressin V1a receptor; in [4]; in assay [2]) was over 10 µM in each case.

Turning to `CCCCc1ncc(/C=C(\Cc2cccs2)C(=O)O)n1Cc1ccc(C(=O)O)cc1` [EPROSARTAN], the half-maximal activity concentration (AC50) at Adenosine receptor A3 is over 10 µM; on Vasopressin V1a receptor, over 30 µM; at Vasopressin V2 receptor it was over 30 µM; on B2 bradykinin receptor, over 30 µM; in assay [1], over 10 µM; in assay [4], over 10 µM. The values for the half-maximal activity concentration (AC50) in [2] and in assay [3] were over 10 µM and over 30 µM, respectively.

In the case of `COC(=O)C1=C(C)NC(C)=C(C(=O)OC2CCCN(Cc3ccccc3)C2)C1c1cccc([N+](=O)[O-])c1` (stereo not drawn) [BENIDIPINE], the AC50 is 3.5 µM at Adenosine receptor A3; over 30 µM on Vasopressin V1a receptor; over 30 µM at Vasopressin V2 receptor; over 30 µM at B2 bradykinin receptor; over 30 µM in assay [1]; over 30 µM in assay [4]. For the same compound, the concentration at half-maximal activity (AC50) in [2] and in [3] was over 30 µM each time.

For `CN1C(=O)C(O)N=C(c2ccccc2)c2cc(Cl)ccc21` (stereo not drawn) [TEMAZEPAM], the AC50 on Adenosine receptor A3 is over 30 µM; at Vasopressin V1a receptor, over 10 µM; on Vasopressin V2 receptor, over 30 µM; on B2 bradykinin receptor, over 30 µM; in assay [1], over 10 µM; in assay [4], over 10 µM. For the same compound, the AC50 in assay [2] and in [3] was over 30 µM in each case.
